Values quoted from earlier work as cited in PMC12583704 (Signal Transduction and Targeted Therapy, 2025).
Where two headings read alike, the source gives them in different places.

Columns and labels:
c-KIT D816H = tested on: c-KIT D816H; set-up: method as in HQP1351 SJ0003 Protocol; conditions: ref HQP1351 SJ0003 Protocol; cited from earlier work
[1] = set-up: method as in HQP1351 SJ0003 Protocol; conditions: ref HQP1351 SJ0003 Protocol, cited from earlier work
Sup-B15 = tested on: Sup-B15; set-up: method as in HQP1351 SJ0003 Protocol; conditions: ref HQP1351 SJ0003 Protocol; cited from earlier work

SMILES: Cc1ccc(C(=O)Nc2ccc(CN3CCN(C)CC3)c(C(F)(F)F)c2)cc1C#Cc1cnc2[nH]ncc2c1 [Olverembatinib, 3-[(1H-pyrazolo[3,4-b]pyridin-5-yl)ethynyl]-4-methyl-N-{4-[(4-methylpiperazin-1-yl)methyl]-3-(trifluoromethyl)phenyl]benzamide]
- inhibition rate (c-KIT D816H): 20%-40%
- absolute bioavailability ([1]; 0.75 mg/kg): 5.11%
- absolute bioavailability ([1]; 2.25 mg/kg): 14.45%
- accumulation of plasma exposure ([1]; 7 consecutive days, in rats and dogs): no obvious accumulation
- t1/2 [1]: 6.62 to 9.72 h
- IC50 (Sup-B15): 2.5 nM
